According to the NIST ThermoML archive (doi:10.1021/acs.jced.7b01053):

Test: mn = molality of the nth substance listed, in mol/kg
Conditions: 293 K, 100 kPa, Liquid, Alternating current cell with electrodes

CCC(=O)[O-].OCC[NH2+]CCO [bis(2-hydroxyethyl)ammonium propanoate] + O
Conditions	electrical conductivity [S/m]
m1 = 0.01926	0.109
m1 = 0.01974	0.104
m1 = 0.03749	0.196
m1 = 0.0377	0.192
m1 = 0.05722	0.296
m1 = 0.05727	0.296
m1 = 0.07596	0.375
m1 = 0.0761	0.365
m1 = 0.0957	0.456
m1 = 0.09617	0.447
m1 = 0.1142	0.528
m1 = 0.1152	0.519
m1 = 0.1335	0.601
m1 = 0.135	0.596
m1 = 0.1519	0.67
m1 = 0.1542	0.668
m1 = 0.1707	0.737
m1 = 0.1718	0.725
m1 = 0.1845	0.785
m1 = 0.1898	0.798
m1 = 0.2029	0.849
m1 = 0.2071	0.875
m1 = 0.22	0.901
m1 = 0.2243	0.942
m1 = 0.2375	0.955
m1 = 0.2406	0.997
m1 = 0.2535	1
m1 = 0.2571	1.03
m1 = 0.2696	1.05
m1 = 0.2722	1.08
m1 = 0.285	1.09
m1 = 0.2875	1.12
m1 = 0.3002	1.13
m1 = 0.3019	1.17
m1 = 0.3142	1.17
m1 = 0.3162	1.16
m1 = 0.3282	1.21
m1 = 0.3293	1.23
m1 = 0.3413	1.24
m1 = 0.3424	1.27
m1 = 0.3538	1.27
m1 = 0.3545	1.31
m1 = 0.3658	1.3
m1 = 0.366	1.35
m1 = 0.3774	1.39
m1 = 0.3775	1.32
m1 = 0.3881	1.41
m1 = 0.3884	1.36
m1 = 0.3986	1.44
m1 = 0.3992	1.39
m1 = 0.4083	1.47
m1 = 0.4092	1.41
m1 = 0.418	1.5
m1 = 0.419	1.44
m1 = 0.4271	1.53
m1 = 0.4283	1.46
m1 = 0.4361	1.55
m1 = 0.4372	1.49
m1 = 0.4445	1.57
m1 = 0.4457	1.51
m1 = 0.4527	1.6
m1 = 0.4539	1.53
m1 = 0.4617	1.56
m1 = 0.4692	1.58
m1 = 0.4759	1.59

CCCC(=O)O.OCCNCCO [diethanolamine butyrate] + O
Conditions	electrical conductivity [S/m]
m1 = 0.01798	0.077
m1 = 0.01805	0.09
m1 = 0.03516	0.166
m1 = 0.03577	0.142
m1 = 0.05397	0.257
m1 = 0.05531	0.207
m1 = 0.0709	0.318
m1 = 0.07433	0.284
m1 = 0.09407	0.346
m1 = 0.09424	0.389
m1 = 0.1085	0.453
m1 = 0.1122	0.403
m1 = 0.1275	0.519
m1 = 0.1316	0.486
m1 = 0.1455	0.581
m1 = 0.1496	0.538
m1 = 0.1638	0.641
m1 = 0.1683	0.577
m1 = 0.1807	0.696
m1 = 0.186	0.597
m1 = 0.1982	0.75
m1 = 0.2035	0.651
m1 = 0.2144	0.801
m1 = 0.2203	0.694
m1 = 0.231	0.87
m1 = 0.237	0.725
m1 = 0.2464	0.912
m1 = 0.2525	0.764
m1 = 0.2616	0.954
m1 = 0.2679	0.782
m1 = 0.2758	0.994
m1 = 0.2824	0.821
m1 = 0.2899	1.03
m1 = 0.297	0.862
m1 = 0.3032	1.06
m1 = 0.3106	0.908
m1 = 0.3162	1.1
m1 = 0.324	0.95
m1 = 0.3283	1.13
m1 = 0.3321	0.98
m1 = 0.3402	1.16
m1 = 0.3438	1
m1 = 0.3514	1.19
m1 = 0.3555	1.02
m1 = 0.3623	1.22
m1 = 0.3665	1.05
m1 = 0.3726	1.24
m1 = 0.3774	1.05
m1 = 0.3826	1.27
m1 = 0.3875	1.07
m1 = 0.3917	1.29
m1 = 0.3975	1.1
m1 = 0.4022	1.32
m1 = 0.4068	1.12
m1 = 0.4115	1.35
m1 = 0.416	1.14
m1 = 0.4201	1.38
m1 = 0.4245	1.16
m1 = 0.4284	1.4
m1 = 0.433	1.18
m1 = 0.4368	1.43
m1 = 0.4446	1.45

CCCCC(=O)O.OCCNCCO [diethanolamine pentanoate] + O
Conditions	electrical conductivity [S/m]
m1 = 0.01462	0.055
m1 = 0.01705	0.064
m1 = 0.03093	0.108
m1 = 0.03218	0.116
m1 = 0.04874	0.161
m1 = 0.0491	0.168
m1 = 0.06476	0.204
m1 = 0.06559	0.215
m1 = 0.08109	0.279
m1 = 0.08267	0.268
m1 = 0.09793	0.328
m1 = 0.09939	0.312
m1 = 0.1159	0.375
m1 = 0.117	0.365
m1 = 0.1326	0.42
m1 = 0.133	0.408
m1 = 0.1488	0.449
m1 = 0.1507	0.47
m1 = 0.163	0.486
m1 = 0.1668	0.512
m1 = 0.1779	0.524
m1 = 0.1838	0.557
m1 = 0.1916	0.526
m1 = 0.1994	0.595
m1 = 0.2058	0.558
m1 = 0.2152	0.634
m1 = 0.2197	0.593
m1 = 0.2297	0.669
m1 = 0.2336	0.624
m1 = 0.2447	0.706
m1 = 0.2467	0.655
m1 = 0.2584	0.739
m1 = 0.26	0.685
m1 = 0.2721	0.767
m1 = 0.2723	0.711
m1 = 0.2848	0.739
m1 = 0.2851	0.795
m1 = 0.2965	0.755
m1 = 0.2976	0.822
m1 = 0.3079	0.789
m1 = 0.3096	0.848
m1 = 0.3188	0.811
m1 = 0.3214	0.874
m1 = 0.3321	0.896
m1 = 0.3396	0.835
m1 = 0.3428	0.918
m1 = 0.3494	0.854
m1 = 0.3527	0.94
m1 = 0.3585	0.876
m1 = 0.3625	0.96
m1 = 0.3675	0.893
m1 = 0.3716	0.979
m1 = 0.376	0.914
m1 = 0.3806	0.999
m1 = 0.3844	0.925
m1 = 0.389	1.01
m1 = 0.3921	0.925
m1 = 0.3973	1.03
m1 = 0.3997	0.925
m1 = 0.4069	0.973
m1 = 0.4446	0.991
